Our source for the IC50 values is patent US5707979A, “Phosphinic acid derivatives, their preparation and their use” (Hoechst Aktiengesellschaft, priority 1994, dated 1998).

Structures are written as SMILES.

The target in this assay is HIV protease (Human immunodeficiency virus type 1 group M subtype B, UniProt P04585). Briefly: Test for inhibition of the HIV protease. Type of assay: biochemical. The settings on record: carried out as described in EP 0 428 849 A2, read-out: IC50 (concentration at which the activity of the enzyme is halved). The procedure: 24) Test for inhibition of the HIV protease
The test for inhibition of the HIV protease was carried out as described in EP 0 428 849 A2. The following IC50 values indicate the concentration at which the activity of the enzyme is halved;

Turning to `O=C1N(Cc2ccc(CO)cc2)[C@@H](Cc2ccccc2)P(=O)(O)[C@@H](Cc2ccccc2)N1Cc1ccc(CO)cc1` [Example 12, ([2R],[6S])-Dibenzyl-3,5-(4-hydroxymethylbenzyl)-1-hydroxy-3,5-diaza-4-oxophosphorinone-1-oxide], the IC50 stood at 4.8 µM. The figure for `O=C1N(Cc2ccc(CO)cc2)[C@@H](Cc2ccccc2)P(=O)(O)[C@H](Cc2ccccc2)N1Cc1ccc(CO)cc1` (relative stereo) [Example 23, ([2R],[6S])-Dibenzyl-3,5-(4-hydroxymethylbenzyl)-1-hydroxy-3,5-diaza-4-oxophosphorinane-1-oxide (racemate composed of [2S,6S] and [2R,6R])] is 0.24 µM. On to `O=C1N(Cc2ccccc2)[C@@H](Cc2ccccc2)P(=O)(O)[C@@H](Cc2ccccc2)N1Cc1ccccc1` [Example 10, ([2R],3,5,[6S])-Tetrabenzyl-1-hydroxy-3,5-diaza-4-oxophosphorinone-1-oxide], for which the IC50 was found to be 50 µM. `O=C1N(Cc2ccc3ccccc3c2)[C@@H](Cc2ccccc2)P(=O)(O)[C@H](Cc2ccccc2)N1Cc1ccc2ccccc2c1` (relative stereo) [Example 19, 2,6-Dibenzyl-3,5-(2-naphthylmethyl)-1-hydroxy-3,5-diaza-4-oxophosphorinane-1-oxide (racemate composed of [2S,6S] and [2R,6R])]: the IC50 turned out to be 0.32 µM. For the molecule `O=C1N(Cc2ccc(CBr)cc2)[C@@H](Cc2ccccc2)P(=O)(O)[C@@H](Cc2ccccc2)N1Cc1ccc(CBr)cc1` [Example 13, ([2R],[6S])-Dibenzyl-3,5-(4-bromomethylbenzyl)-1-hydroxy-3,5-diaza-4-oxophosphorinone-1-oxide], the IC50 is 18 µM.
